Results on nine compounds are retold here after patent US20120122860A1, “SOLID FORMS OF SULFONAMIDES AND AMINO ACIDS” (Plexxikon, Inc., priority 2009, published 2012).

Series [1] in a line: Dog PK study of solid forms and formulations. The format is in vivo, Beagle dogs. As for the experimental part: Pharmacokinetic properties of various compositions prepared from the complexes may be assessed in male Sprague Dawley rats or male Beagle dogs, and compared to the properties of the free base compound. Rats are dosed daily with compound either by IV injections via surgically implanted jugular catheters or by oral gavage (PO). Each compound is prepared as a 20 mg/mL stock solution in dimethyl sulfoxide, which is further diluted to provide the dosing stock at the desired concentration for the IV or PO formulations. For IV dosing, the dosing stock is diluted into a 1:1:8 mixture of Solutol®:ethanol:water. For PO dosing, the dosing stock is diluted into 1% methylcellulose. In a cassette format, 5 compounds are diluted to 0.5 mg/mL each for IV dosing and 0.4 mg/mL each for PO dosing and dosed at 1 mg/kg (2 mL/kg) or 2 mg/kg (5 mL/kg), respectively. For IV dosed animals, tail vein blood samples are collected with lithium heparin anticoagulant at 5, 15, 30, and 60 minutes and 4, 8, and 24 hours post dosing each day. For PO dosed animals, tail vein blood samples are collected with lithium heparin anticoagulant at 30 minutes, 1, 2, 4, 8 and 24 hours post dosing each day. Dogs are dosed daily by oral capsules in a suitable formulation at 50 mg/mL. Cephalic vein blood samples are collected with lithium heparin anticoagulant at 30 minutes, 1, 2, 4, 8 and 24 hours post dosing each day. All samples are processed to plasma and frozen for later analysis of each compound by LC/MS/MS. Plasma levels as a function of time are plotted to assess the AUC (ng*hr/mL).
The arginine complex of N-[3-(5-chloro-1H-pyrrolo[2,3-b]pyridine-3-carbonyl)-2,4-difluoro-phenyl]-4-trifluoromethyl-benzenesulfonamide P-1021 was analyzed in a number of dog PK studies following the above or similar protocols. These were done primarily at Bridge Laboratories, Beijing, China, with one study done at Seventh Wave Laboratories LLC, Chesterfield, Mo. Plasma samples were analyzed to determine the plasma concentration (PPD Development, Madison, Wis.) at each time point from which the Cmax and AUC∞ were determined. In some instances, the materials are combined in the solvents indicated, and the solvent is removed by evaporation, or by spray drying where indicated. In these tables, unless indicated otherwise, the dose is mg/dog, and the Cmax/dose ((ng/mL)/(mg/kg)) and the AUC∞/dose ((ng*hr/mL)/(mg/kg)) are calculated assuming a 10 kg weight for the dogs.
This study was done at Seventh Wave, containers were provided with 13.259 g, 39.776 g or 66.301 g of this formulation and suspended in 360 mL of 1.5% Polysorbate 20 vehicle and dosed by oral gavage.
N-[3-(5-chloro-1H-pyrrolo[2,3-b]pyridine-3-carbonyl)-2,4-difluoro-phenyl]-4-trifluoromethyl-benzenesulfonamide P-1021 was analyzed in a dog PK study wherein the arginine complex of N-[3-(5-cyano-1H-pyrrolo[2,3-b]pyridine-3-carbonyl)-2,4-difluoro-phenyl]-4-trifluoromethyl-benzenesulfonamide P-1092 was also assessed.

Another series has as its target B-Raf V600E (Homo sapiens, UniProt P15056, V600E). Put plainly: Kinase activity assay, B-Raf V600E. Type of series: biochemical. To be noted: read-out: activity toward kinase B-Raf V600E, IC50.
Another series has as its target B-Raf (Homo sapiens, UniProt P15056). The series is described as follows: Kinase activity assay, B-Raf. The format is biochemical. As to conditions: read-out: activity toward kinase B-Raf, IC50.
Another series has as its target Kit (Homo sapiens, UniProt P10721). Put plainly: Kinase activity assay, Kit.
Another series has as its target C-Raf (Homo sapiens, UniProt P04049). The series is described as follows: Kinase activity assay, C-Raf.
The target in a further series is Src (Homo sapiens, UniProt P12931). The series is described as follows: Kinase activity assay, Src.
The target in another series is Btk (Homo sapiens, UniProt Q06187). Put plainly: Kinase activity assay, Btk.
In a further series the target is Fms (Homo sapiens, UniProt P07333). The series is described as follows: Kinase activity assay, Fms.
The target of a further series is T1, TEC (Homo sapiens, UniProt P42680).
T1 sequence (P42680 1-631): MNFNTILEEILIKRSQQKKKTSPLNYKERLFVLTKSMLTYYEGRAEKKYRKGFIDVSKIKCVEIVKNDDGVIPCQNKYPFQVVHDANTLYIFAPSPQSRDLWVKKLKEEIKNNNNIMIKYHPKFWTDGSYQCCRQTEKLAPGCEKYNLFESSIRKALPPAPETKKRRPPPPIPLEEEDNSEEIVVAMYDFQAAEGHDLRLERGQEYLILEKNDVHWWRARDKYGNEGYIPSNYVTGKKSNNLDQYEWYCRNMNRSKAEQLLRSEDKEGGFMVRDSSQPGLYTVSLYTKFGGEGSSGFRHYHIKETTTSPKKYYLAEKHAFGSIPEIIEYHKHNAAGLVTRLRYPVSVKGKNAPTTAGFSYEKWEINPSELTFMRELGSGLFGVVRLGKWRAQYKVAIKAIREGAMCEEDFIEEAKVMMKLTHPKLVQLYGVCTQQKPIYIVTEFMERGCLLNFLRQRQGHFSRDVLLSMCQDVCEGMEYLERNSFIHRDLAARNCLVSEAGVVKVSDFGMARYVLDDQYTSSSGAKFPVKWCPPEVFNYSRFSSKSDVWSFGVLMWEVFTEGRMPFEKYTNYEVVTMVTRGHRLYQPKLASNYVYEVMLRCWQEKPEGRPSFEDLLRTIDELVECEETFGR
Put plainly: Kinase activity assay, TEC.

The next series deals with PI3Kα (Homo sapiens, UniProt P42336). Put plainly: Kinase activity assay, PI3Kα.
In a further series the target is Kdr (Homo sapiens, UniProt P35968). Put plainly: Kinase activity assay, Kdr.
For another series, the target named is MAP4K4 (Homo sapiens, UniProt O95819). The series is described as follows: Kinase activity assay, MAP4K4.
Where [2] appears, read: Table 5B, forms of P-1021, dog, dose 150 mg/dog, 10 kg weight assumed.
Where [3] appears, read: test articles are solid forms of P-1021, dog, oral, 100 mg/dog, calculated assuming a 10 kg weight.

Chain of Btk (Q06187 whole entry): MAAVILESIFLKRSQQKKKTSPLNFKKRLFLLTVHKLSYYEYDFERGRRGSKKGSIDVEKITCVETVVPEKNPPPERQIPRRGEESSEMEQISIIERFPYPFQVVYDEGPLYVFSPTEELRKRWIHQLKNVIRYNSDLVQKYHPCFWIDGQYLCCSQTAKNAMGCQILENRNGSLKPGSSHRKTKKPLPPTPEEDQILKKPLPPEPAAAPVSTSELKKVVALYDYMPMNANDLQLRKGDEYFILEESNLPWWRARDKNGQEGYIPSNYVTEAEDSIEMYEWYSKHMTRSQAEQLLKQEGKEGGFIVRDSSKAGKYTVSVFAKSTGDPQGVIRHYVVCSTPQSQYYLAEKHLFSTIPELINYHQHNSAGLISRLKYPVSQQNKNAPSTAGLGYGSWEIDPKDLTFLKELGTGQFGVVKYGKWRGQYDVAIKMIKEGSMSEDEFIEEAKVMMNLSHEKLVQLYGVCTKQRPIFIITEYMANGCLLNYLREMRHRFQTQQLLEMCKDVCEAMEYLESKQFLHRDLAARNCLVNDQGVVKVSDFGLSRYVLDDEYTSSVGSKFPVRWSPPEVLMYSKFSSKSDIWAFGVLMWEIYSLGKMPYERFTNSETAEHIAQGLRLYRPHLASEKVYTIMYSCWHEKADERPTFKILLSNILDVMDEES
Chain of C-Raf (P04049 whole entry): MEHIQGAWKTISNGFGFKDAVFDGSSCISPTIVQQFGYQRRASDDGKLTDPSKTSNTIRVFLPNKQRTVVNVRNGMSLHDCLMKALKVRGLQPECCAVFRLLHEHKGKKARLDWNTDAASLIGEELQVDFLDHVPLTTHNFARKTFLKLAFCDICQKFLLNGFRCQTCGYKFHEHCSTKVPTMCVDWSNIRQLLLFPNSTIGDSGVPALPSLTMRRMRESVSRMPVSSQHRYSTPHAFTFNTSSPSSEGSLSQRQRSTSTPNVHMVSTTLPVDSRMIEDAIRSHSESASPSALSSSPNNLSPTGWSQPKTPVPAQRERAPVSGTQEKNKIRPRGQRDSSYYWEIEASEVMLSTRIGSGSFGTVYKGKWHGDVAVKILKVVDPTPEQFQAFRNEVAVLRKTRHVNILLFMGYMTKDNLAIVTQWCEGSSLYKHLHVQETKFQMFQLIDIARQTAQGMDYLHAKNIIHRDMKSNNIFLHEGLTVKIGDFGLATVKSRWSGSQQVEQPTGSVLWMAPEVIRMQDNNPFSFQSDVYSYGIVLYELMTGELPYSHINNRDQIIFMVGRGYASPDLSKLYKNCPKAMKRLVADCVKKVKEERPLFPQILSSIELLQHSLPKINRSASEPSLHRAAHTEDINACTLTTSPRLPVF
Chain of Src (P12931 whole entry): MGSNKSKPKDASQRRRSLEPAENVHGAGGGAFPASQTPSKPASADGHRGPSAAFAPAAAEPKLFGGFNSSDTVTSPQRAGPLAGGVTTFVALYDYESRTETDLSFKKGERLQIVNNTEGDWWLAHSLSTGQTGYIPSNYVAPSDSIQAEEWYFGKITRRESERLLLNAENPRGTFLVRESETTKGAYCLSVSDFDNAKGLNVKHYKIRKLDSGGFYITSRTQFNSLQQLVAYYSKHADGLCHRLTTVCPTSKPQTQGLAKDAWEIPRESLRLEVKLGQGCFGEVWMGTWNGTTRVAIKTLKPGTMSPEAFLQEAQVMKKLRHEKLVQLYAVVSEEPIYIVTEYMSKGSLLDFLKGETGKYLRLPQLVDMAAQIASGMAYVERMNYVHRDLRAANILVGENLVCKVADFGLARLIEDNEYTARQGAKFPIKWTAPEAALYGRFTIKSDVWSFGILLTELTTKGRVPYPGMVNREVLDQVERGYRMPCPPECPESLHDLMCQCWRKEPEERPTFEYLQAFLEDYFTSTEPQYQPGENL
Chain of Kdr (P35968 20-1356): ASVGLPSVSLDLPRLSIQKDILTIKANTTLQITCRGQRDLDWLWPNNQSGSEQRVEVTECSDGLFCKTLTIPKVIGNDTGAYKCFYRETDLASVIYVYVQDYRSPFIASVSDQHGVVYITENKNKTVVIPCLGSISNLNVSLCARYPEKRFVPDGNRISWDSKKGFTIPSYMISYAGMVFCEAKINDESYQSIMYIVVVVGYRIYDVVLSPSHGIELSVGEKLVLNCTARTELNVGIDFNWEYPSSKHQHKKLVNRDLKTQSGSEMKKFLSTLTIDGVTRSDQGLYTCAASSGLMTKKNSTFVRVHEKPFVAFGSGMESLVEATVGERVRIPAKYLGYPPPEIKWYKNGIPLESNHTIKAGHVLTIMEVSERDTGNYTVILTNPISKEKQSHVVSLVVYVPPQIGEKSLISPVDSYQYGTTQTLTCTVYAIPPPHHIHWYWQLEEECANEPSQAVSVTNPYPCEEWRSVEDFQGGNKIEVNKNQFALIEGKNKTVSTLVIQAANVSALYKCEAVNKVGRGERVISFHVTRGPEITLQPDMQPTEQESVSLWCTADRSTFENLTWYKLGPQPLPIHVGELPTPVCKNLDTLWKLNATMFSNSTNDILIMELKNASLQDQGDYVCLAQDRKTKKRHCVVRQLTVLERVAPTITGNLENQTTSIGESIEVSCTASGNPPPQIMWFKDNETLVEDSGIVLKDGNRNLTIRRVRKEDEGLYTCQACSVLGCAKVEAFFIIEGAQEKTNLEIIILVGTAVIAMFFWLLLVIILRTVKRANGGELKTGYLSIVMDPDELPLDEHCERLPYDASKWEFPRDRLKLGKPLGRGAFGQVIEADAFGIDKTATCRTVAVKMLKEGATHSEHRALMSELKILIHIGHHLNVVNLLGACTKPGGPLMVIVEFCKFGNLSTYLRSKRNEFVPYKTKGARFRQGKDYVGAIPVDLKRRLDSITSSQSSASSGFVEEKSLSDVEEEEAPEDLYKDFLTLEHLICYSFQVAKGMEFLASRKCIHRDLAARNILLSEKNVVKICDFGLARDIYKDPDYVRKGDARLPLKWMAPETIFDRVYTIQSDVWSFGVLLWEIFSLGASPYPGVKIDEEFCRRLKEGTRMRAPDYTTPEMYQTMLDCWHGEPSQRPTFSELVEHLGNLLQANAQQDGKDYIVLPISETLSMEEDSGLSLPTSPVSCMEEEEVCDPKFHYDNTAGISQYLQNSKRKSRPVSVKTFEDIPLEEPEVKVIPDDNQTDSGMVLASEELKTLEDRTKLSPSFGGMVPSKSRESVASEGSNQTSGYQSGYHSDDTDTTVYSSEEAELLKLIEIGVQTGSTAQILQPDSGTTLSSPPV
Chain of B-Raf (P15056 whole entry): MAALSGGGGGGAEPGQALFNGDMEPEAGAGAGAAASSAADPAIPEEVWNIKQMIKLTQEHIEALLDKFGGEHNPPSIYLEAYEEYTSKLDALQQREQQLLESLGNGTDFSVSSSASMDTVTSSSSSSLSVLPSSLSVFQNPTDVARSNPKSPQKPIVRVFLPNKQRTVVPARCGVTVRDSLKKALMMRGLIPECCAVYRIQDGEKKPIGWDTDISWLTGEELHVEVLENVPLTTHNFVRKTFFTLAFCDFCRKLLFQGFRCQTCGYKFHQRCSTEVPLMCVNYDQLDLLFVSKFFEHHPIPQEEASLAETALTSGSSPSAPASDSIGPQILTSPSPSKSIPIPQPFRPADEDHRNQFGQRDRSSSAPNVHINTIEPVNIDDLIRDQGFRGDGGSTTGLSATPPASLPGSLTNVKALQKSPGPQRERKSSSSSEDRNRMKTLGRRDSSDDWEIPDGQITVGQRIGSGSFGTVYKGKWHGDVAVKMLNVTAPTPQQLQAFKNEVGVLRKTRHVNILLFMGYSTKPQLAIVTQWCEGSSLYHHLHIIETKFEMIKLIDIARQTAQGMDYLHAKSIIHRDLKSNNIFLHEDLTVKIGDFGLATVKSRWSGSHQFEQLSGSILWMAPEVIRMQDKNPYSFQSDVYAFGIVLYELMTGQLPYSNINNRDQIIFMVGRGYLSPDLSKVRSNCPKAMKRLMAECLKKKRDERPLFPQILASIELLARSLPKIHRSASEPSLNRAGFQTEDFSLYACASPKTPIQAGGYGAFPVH
Chain of Fms (P07333 20-972): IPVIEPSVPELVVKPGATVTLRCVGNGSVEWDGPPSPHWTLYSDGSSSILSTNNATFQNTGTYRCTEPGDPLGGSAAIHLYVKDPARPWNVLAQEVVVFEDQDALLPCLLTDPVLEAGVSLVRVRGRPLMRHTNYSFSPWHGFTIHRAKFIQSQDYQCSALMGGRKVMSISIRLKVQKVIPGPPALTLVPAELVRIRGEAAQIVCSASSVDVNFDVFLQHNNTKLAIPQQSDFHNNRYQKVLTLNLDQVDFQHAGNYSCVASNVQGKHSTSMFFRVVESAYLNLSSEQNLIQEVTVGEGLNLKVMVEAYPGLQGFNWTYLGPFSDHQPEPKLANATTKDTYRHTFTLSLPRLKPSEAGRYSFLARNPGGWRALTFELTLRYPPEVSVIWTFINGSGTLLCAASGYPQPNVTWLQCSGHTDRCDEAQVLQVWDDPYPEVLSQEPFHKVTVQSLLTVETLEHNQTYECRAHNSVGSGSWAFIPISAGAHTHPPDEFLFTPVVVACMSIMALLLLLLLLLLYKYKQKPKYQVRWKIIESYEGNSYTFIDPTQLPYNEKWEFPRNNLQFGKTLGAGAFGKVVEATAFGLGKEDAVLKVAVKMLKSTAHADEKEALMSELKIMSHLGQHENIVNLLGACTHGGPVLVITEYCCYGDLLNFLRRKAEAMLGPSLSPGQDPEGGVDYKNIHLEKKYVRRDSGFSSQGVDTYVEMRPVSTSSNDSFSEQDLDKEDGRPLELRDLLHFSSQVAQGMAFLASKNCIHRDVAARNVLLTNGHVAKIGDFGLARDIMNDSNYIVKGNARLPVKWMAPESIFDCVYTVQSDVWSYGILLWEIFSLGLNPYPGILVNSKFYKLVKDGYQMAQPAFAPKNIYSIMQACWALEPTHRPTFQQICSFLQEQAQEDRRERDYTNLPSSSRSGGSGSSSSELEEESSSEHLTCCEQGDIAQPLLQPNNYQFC
Chain of B-Raf V600E (P15056 whole entry V600E): as the sequence (P15056 whole entry) above, with V600E counted along it

Regarding `O=C(c1c(F)ccc(NS(=O)(=O)c2ccc(C(F)(F)F)cc2)c1F)c1c[nH]c2ncc(Cl)cc12` [Amorphous free base, N-[3-(5-chloro-1H-pyrrolo[2,3-b]pyridine-3-carbonyl)-2,4-difluoro-phenyl]-4-trifluoromethyl-benzenesulfonamide], in [1] (setting [2]), the “AUC∞/dose” value is listed as 482 (ng*hr/mL)/(mg/kg) and the Cmax/dose is given as 33 (ng/mL)/(mg/kg).

Take `O=C(c1c(F)ccc(NS(=O)(=O)c2ccc(C(F)(F)F)cc2)c1F)c1c[nH]c2ncc(Cl)cc12` [Free base, N-[3-(5-chloro-1H-pyrrolo[2,3-b]pyridine-3-carbonyl)-2,4-difluoro-phenyl]-4-trifluoromethyl-benzenesulfonamide]: in series [1] (setting [2]), the “AUC∞/dose” value is listed as 5,270 (ng*hr/mL)/(mg/kg) and the Cmax/dose was 482 (ng/mL)/(mg/kg). In addition, in series [1] (setting [3]), the “AUC∞/dose” value is on record as 8,031 (ng*hr/mL)/(mg/kg) and the Cmax/dose was 581.3 (ng/mL)/(mg/kg).

For `COc1ncc(-c2cnc3[nH]cc(C(=O)c4c(F)ccc(NS(=O)(=O)c5cc(F)ccc5F)c4F)c3c2)cn1` [P-2042, N-{2,4-Difluoro-3-[5-(2-methoxy-pyrimidin-5-yl)-1H-pyrrolo[2,3-b]pyridine-3-carbonyl]-phenyl}-2,5-difluoro-benzenesulfonamide], the half-inhibitory concentration (IC50) on B-Raf V600E, at B-Raf, against Kit, at C-Raf, against Src and against Btk was no more than 10 µM throughout. Besides, the IC50 on Fms, against TEC, on PI3Kα and at Kdr was no more than 10 µM throughout.

Take `COc1ncc(-c2cnc3[nH]cc(C(=O)c4c(F)ccc(NS(=O)(=O)c5c(F)cccc5F)c4F)c3c2)cn1` [P-2043, N-{2,4-Difluoro-3-[5-(2-methoxy-pyrimidin-5-yl)-1H-pyrrolo[2,3-b]pyridine-3-carbonyl]-phenyl}-2,6-difluoro-benzenesulfonamide]: the IC50 on B-Raf V600E, on B-Raf, at Kit, against C-Raf, against Src and at Btk was no more than 10 µM throughout. Besides, the IC50 at Fms, against TEC, against PI3Kα and on Kdr was no more than 10 µM each time.

Take `COc1ncc(-c2cnc3[nH]cc(C(=O)c4c(F)ccc(NS(=O)(=O)c5ccc(F)cc5F)c4F)c3c2)cn1` [P-2044, N-{2,4-Difluoro-3-[5-(2-methoxy-pyrimidin-5-yl)-1H-pyrrolo[2,3-b]pyridine-3-carbonyl]-phenyl}-2,4-difluoro-benzenesulfonamide]: the IC50 at B-Raf V600E, at B-Raf, against Kit, against C-Raf, at Src and against Btk was no more than 10 µM throughout. For the same compound, the IC50 at Fms, on TEC, at PI3Kα and against Kdr was no more than 10 µM throughout.

Consider `CS(=O)(=O)Nc1cccc(-c2cnc3[nH]cc(C(=O)c4cc(NS(=O)(=O)c5cccnc5)ccc4F)c3c2)c1` [P-2139, Pyridine-3-sulfonic acid {4-fluoro-3-[5-(3-methanesulfonylamino-phenyl)-1H-pyrrolo[2,3-b]pyridine-3-carbonyl]-phenyl}-amide], for which the IC50 at B-Raf V600E, on B-Raf, on Kit, against MAP4K4, on C-Raf and against Src was no more than 10 µM each time. For the same compound, the IC50 at Btk, at Fms, against TEC, at PI3Kα and on Kdr was no more than 10 µM each time.

For `CS(=O)(=O)Nc1cccc(-c2cnc3[nH]cc(C(=O)c4cccc(NS(=O)(=O)c5cccnc5)c4)c3c2)c1` [P-2145, Pyridine-3-sulfonic acid {3-[5-(3-methanesulfonylamino-phenyl)-1H-pyrrolo[2,3-b]pyridine-3-carbonyl]-phenyl}-amide], the IC50 at B-Raf, on Kit, against MAP4K4, against Src, on Btk and against Fms was no more than 10 µM throughout. For the same compound, the IC50 at TEC, against PI3Kα and against Kdr was no more than 10 µM throughout.

For `COc1ncc(-c2cnc3[nH]cc(C(=O)c4c(F)ccc(NS(=O)(=O)CC(C)C)c4F)c3c2)cn1` [P-2322, 2-Methyl-propane-1-sulfonic acid {2,4-difluoro-3-[5-(2-methoxy-pyrimidin-5-yl)-1H-pyrrolo[2,3-b]pyridine-3-carbonyl]-phenyl}-amide], the half-inhibitory concentration (IC50) at B-Raf V600E, at B-Raf, at Kit, on C-Raf, against Src and against Btk was no more than 10 µM in each case. For the same compound, the IC50 at Fms, against TEC, against PI3Kα and against Kdr was no more than 10 µM in each case.

In the case of `COc1ncc(-c2cnc3[nH]cc(C(=O)c4c(F)ccc(NS(=O)(=O)C5CCCCC5)c4F)c3c2)cn1` [P-2371, Cyclohexanesulfonic acid {2,4-difluoro-3-[5-(2-methoxy-pyrimidin-5-yl)-1H-pyrrolo[2,3-b]pyridine-3-carbonyl]-phenyl}-amide], the IC50 at B-Raf V600E, at B-Raf, against Kit, at C-Raf, against Src and on Btk was no more than 10 µM in each case. Also, the half-inhibitory concentration (IC50) at Fms, at TEC, against PI3Kα and against Kdr was no more than 10 µM in each case.
